{"source": "ChEMBL document CHEMBL1124675", "about": "“Synthesis and biological evaluation of a monocyclic, fully functional analogue of compactin” (J Med Chem, 1989)", "data": [{"biological_target": "T1, 3-hydroxy-3-methylglutaryl-coenzyme A reductase (Rattus norvegicus, UniProt P51639)", "T1 sequence (P51639 whole entry)": "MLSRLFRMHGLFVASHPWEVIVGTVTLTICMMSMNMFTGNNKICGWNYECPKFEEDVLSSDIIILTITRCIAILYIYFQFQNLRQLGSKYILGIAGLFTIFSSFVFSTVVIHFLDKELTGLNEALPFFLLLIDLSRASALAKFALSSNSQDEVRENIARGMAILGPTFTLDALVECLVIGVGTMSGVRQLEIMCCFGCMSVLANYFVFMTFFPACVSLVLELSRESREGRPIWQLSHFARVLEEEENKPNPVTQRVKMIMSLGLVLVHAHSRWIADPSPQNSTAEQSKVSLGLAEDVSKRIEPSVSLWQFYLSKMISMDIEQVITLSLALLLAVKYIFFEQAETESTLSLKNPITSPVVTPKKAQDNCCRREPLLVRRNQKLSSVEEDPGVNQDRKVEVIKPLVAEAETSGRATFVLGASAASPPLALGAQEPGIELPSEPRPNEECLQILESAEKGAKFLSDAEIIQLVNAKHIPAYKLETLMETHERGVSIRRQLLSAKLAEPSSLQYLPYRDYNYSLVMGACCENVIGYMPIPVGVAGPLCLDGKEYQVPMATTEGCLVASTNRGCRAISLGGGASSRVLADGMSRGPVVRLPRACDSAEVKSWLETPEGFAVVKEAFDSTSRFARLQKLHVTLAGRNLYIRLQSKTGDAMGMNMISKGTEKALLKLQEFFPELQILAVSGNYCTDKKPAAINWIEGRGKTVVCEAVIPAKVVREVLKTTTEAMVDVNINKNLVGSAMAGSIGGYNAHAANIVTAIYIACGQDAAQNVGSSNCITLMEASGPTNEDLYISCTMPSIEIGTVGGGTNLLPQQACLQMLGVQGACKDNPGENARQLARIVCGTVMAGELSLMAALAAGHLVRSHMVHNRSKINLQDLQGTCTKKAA", "test": "Ability of compound to inhibit the activity of 3-hydroxy-3-methylglutarylcoenzyme A(HMGR) reductase in rat liver microsomes", "design": "species or system Microsome", "units": {"IC50": "µM"}, "values": [{"compound": "CC[C@H](C)C(=O)O[C@H]1CCC=C2C=C[C@H](C)[C@H](CCC(=O)C[C@@H](O)CC(=O)O)C21", "note": "(stereo not given in full)", "IC50": 0.032}, {"compound": "CC[C@H](C)C(=O)O[C@H]1CCC=C2C=C[C@H](C)[C@H](CCC(O)C[C@@H](O)CC(=O)O)C21", "note": "(stereo not given in full)", "IC50": 0.013}, {"compound": "CC[C@H](C)C(=O)O[C@H]1C[C@@H](C)C[C@@H]2C=C[C@H](C)[C@H](CCC(O)C[C@@H](O)CC(=O)O)C12", "note": "(stereo not given in full)", "IC50": 0.0016}, {"compound": "O=C(O)CC(O)CC(O)CCc1ccccc1", "note": "(stereo not given)", "IC50": 600}, {"compound": "O=C(O)C[C@H](O)CC(=O)CCc1ccccc1", "IC50": 1300}]}]}
